# Calls of active or inactive are those of the source. No cut-off for these calls is given here.
# Columns and labels:
# Coagulation factor XI [1] = target: T1, Coagulation factor XI (Homo sapiens, UniProt P03951); test: Inhibition of coagulation factor XIa (unknown origin) assessed as chromogenic substrate hydrolysis using CS-21(66) as substrate incubated for 1 hr by spectrophotometer based microplate reader method
# Plasma kallikrein = Plasma kallikrein (Homo sapiens, UniProt P03952); test: Inhibition of plasma kallikrein (unknown origin) assessed as chromogenic substrate hydrolysis using CS-31(02) as substrate incubated for 1 hr by spectrophotometer based microplate reader method
# Homo sapiens [2] = organism: Homo sapiens; test: Selectivity index, ratio of IC50 for plasma kallikrein (unknown origin) to IC50 for coagulation factor XIa (unknown origin)
# Coagulation factor X = Coagulation factor X (Homo sapiens, UniProt P00742); test: Inhibition of coagulation factor Xa (unknown origin) assessed as chromogenic substrate using CS-11(22) as substrate incubated for 1 hr by spectrophotometer based microplate reader method
# [3] = target: T2, Coagulation factor XII (Homo sapiens) (UniProt P00748); test: Inhibition of coagulation factor XIIa (unknown origin) assessed as chromogenic substrate using TH5253 as substrate at 1 mM incubated for 1 hr by spectrophotometer based microplate reader method
# T2 sequence (whole entry): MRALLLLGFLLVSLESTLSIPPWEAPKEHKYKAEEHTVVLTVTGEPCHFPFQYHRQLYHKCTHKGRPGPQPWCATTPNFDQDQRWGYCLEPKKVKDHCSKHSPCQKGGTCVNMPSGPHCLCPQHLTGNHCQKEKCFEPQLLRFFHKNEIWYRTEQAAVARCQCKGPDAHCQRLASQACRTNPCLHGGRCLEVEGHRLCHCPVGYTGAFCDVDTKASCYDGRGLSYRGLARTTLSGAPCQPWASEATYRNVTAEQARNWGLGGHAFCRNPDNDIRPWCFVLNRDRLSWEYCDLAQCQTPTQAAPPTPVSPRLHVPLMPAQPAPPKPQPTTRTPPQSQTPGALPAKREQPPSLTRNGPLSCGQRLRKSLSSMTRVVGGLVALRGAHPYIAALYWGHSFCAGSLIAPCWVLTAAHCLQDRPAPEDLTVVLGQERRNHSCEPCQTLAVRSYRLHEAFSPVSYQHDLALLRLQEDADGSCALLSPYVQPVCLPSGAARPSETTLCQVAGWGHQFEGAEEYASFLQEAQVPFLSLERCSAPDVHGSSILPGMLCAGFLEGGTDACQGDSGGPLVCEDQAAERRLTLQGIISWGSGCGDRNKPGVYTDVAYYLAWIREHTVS
# [4] = target: Serine protease 1 (Homo sapiens) (UniProt P07477); test: Inhibition of trypsin (unknown origin) assessed as chromogenic substrate using CS-11(22) as substrate at 1 mM incubated for 1 hr by spectrophotometer based microplate reader method
# Prothrombin = Prothrombin (Homo sapiens, UniProt P00734); test: Inhibition of thrombin (unknown origin) assessed as chromogenic substrate using CS-10(38) as substrate incubated for 1 hr by spectrophotometer based microplate reader method
# Homo sapiens [5] = organism: Homo sapiens; test: Selectivity index, ratio of IC50 for coagulation factor Xa (unknown origin) to IC50 for coagulation factor XIa (unknown origin)
# Homo sapiens [6] = organism: Homo sapiens; test: Selectivity index, ratio of IC50 for coagulation factor XIIa (unknown origin) to IC50 for coagulation factor XIa (unknown origin)
# Homo sapiens [7] = organism: Homo sapiens; test: Selectivity index, ratio of IC50 for coagulation factor VIIa (unknown origin) to IC50 for coagulation factor XIa (unknown origin)
# Homo sapiens [8] = organism: Homo sapiens; test: Selectivity index, ratio of IC50 for trypsin (unknown origin) to IC50 for coagulation factor XIa (unknown origin)
# Homo sapiens [9] = organism: Homo sapiens; test: Selectivity index, ratio of IC50 for thrombin (unknown origin) to IC50 for coagulation factor XIa (unknown origin)
# Plasma [10] = test: Anticoagulant activity in mouse platelet-poor plasma assessed as increase in prothrombin time at 3.8 to 210 ug/ml incubated for 3 mins by coagulometer analysis; type: functional, cell-free; settings: dose 3.8-210 µg/ml
# Plasma [11] = test: Anticoagulant activity in mouse platelet-poor plasma assessed as increase in activated partial thromboplastin time at 22 ug/ml incubated for 3 mins by coagulometer analysis; type: functional, cell-free; settings: dose 22.0 µg/ml
# [12] = Cmax in Sprague-Dawley rat at 10 mg/kg, iv after 0.083 to 24 hrs by LC-MS/MS analysis; type: ADME, organism-based; parameters: route intravenous, dose 10 mg/kg, time upper 24 hrs, time lower 0.083 hrs; settings: in vivo
# [13] = AUC(0 to t) in Sprague-Dawley rat at 10 mg/kg, iv after 0.083 to 24 hrs by LC-MS/MS analysis; type: ADME, organism-based; parameters: route intravenous, time upper 24 hrs, time lower 0.083 hrs, dose 10 mg/kg; settings: in vivo
# [14] = Clearance in Sprague-Dawley rat at 10 mg/kg, iv after 0.083 to 24 hrs by LC-MS/MS analysis; type: ADME, organism-based; settings: in vivo, time 0.083-24 hrs
# [15] = AUC(0 to infinity) in Sprague-Dawley rat at 10 mg/kg, iv after 0.083 to 24 hrs by LC-MS/MS analysis; type: ADME, organism-based; parameters: route intravenous, dose 10 mg/kg, time upper 24 hrs, time lower 0.083 hrs; settings: in vivo
# Mus musculus [16] = test: Antithrombotic activity against FeCl3-induced carotid artery thrombosis C57BL/6J mouse model assessed as prolongation of occlusion time pretreated at 19.5 mg/kg, iv tail vein injection for 10 mins followed by FeCl3 addition for 3 mins and measured after 30 mins; type: functional, organism-based; settings: time 43.0 min
# Mus musculus [17] = test: Antithrombotic activity in C57BL/6J mouse model of FeCl3-induced carotid artery thrombosis assessed as time of occlusion pretreated at 6.5 mg/kg for 10 mins followed by FeCl3 addition for 3 mins and measured after 30 mins; type: functional, organism-based
# [18] = Acute toxicity in ICR mouse assessed as histological change in spleen at 50 to 100 mg/kg, iv as single dose for 14 days by H and E staining method; type: organism-based; settings: in vivo, 336 h, dose 50-100 mg/kg, time 14 day
# [19] = Acute toxicity in ICR mouse assessed as histological change in lung at 50 to 100 mg/kg, iv as single dose for 14 days by H and E staining method; type: organism-based; settings: in vivo, 336 h, dose 50-100 mg/kg, time 14 day
# [20] = Acute toxicity in ICR mouse assessed as histological change in kidney at 50 to 100 mg/kg, iv as single dose for 14 days by H and E staining method; type: organism-based; settings: in vivo, 336 h, dose 50-100 mg/kg, time 14 day
# [21] = Acute toxicity in ICR mouse assessed as histological change in heart at 50 to 100 mg/kg, iv as single dose for 14 days by H and E staining method; type: organism-based; settings: in vivo, 336 h, dose 50-100 mg/kg, time 14 day
# [22] = Acute toxicity in ICR male mouse assessed as effect on weight loss at 50 to 100 mg/kg, iv as single dose for 14 days; type: organism-based; settings: in vivo, 336 h, dose 50-100 mg/kg, time 14 day
# [23] = Acute toxicity in ICR female mouse assessed as effect on weight loss at 50 to 100 mg/kg, iv as single dose for 14 days; type: organism-based; settings: in vivo, 336 h, dose 50-100 mg/kg, time 14 day
# [24] = Toxicity in C57BL/6J mouse assessed as bleeding risk at 35 mg/kg, iv measured after 15 mins by tail transection assay; type: organism-based; settings: in vivo, 0.25 h
# [25] = Toxicity in C57BL/6J mouse assessed as bleeding risk at 60 to 100 mg/kg, iv measured after 15 mins by tail transection assay; type: organism-based; settings: in vivo, 0.25 h, dose 60-100 mg/kg
# Coagulation factor XI [26] = target: T1, Coagulation factor XI; settings: dose 50.0 nM, time 1.0 hrs
# T1 sequence (P03951 19-387 limits assumed): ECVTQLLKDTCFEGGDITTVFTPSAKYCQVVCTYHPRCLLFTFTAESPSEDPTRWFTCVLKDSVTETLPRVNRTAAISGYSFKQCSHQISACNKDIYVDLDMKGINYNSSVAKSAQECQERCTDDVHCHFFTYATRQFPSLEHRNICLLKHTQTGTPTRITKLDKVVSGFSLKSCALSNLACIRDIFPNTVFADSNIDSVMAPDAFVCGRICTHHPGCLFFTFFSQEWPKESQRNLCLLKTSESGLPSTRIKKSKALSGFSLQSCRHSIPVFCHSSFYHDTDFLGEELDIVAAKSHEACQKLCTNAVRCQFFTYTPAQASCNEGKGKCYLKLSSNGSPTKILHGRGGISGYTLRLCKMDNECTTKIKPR
# T1 sequence (P03951 388-625 limits assumed): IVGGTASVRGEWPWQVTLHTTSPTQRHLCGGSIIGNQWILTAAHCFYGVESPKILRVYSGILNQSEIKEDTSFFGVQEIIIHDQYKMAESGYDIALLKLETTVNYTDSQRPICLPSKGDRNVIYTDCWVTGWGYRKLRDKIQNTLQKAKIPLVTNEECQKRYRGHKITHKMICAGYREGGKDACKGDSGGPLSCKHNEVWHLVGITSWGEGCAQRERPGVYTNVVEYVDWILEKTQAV
# Sequence of Serine protease 1 (Homo sapiens) (P07477 whole entry): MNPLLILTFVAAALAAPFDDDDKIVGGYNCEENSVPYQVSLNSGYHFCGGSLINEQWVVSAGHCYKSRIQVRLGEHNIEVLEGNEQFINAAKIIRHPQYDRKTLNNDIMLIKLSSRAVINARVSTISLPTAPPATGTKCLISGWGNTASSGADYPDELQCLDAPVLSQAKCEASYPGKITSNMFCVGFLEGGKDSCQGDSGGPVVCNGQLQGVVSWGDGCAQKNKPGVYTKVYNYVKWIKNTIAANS
# Sequence of Coagulation factor X (P00742 41-179 limits assumed): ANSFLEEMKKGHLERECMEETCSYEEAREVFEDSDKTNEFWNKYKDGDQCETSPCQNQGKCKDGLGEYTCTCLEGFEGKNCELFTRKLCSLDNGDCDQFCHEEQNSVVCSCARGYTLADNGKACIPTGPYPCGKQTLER
# Sequence of Coagulation factor X (P00742 235-488 limits assumed): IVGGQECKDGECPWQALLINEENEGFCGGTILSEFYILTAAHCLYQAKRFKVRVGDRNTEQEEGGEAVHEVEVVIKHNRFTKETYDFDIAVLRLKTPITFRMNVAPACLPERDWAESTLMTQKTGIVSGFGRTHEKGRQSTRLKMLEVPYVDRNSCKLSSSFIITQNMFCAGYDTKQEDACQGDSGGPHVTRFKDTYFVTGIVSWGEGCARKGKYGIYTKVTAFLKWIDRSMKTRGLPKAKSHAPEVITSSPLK
# Sequence of Plasma kallikrein (P03952 20-390 limits assumed): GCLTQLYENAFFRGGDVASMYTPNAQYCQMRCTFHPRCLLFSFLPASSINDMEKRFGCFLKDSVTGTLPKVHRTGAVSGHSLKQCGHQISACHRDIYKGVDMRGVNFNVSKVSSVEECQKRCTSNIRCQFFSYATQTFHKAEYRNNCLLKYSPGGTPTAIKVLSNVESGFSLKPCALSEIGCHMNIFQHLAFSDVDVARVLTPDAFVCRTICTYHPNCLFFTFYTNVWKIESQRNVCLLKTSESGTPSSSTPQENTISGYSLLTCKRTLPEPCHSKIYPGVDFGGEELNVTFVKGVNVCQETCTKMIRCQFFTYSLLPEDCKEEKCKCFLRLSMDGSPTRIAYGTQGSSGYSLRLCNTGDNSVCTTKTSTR
# Sequence of Plasma kallikrein (P03952 391-638 limits assumed): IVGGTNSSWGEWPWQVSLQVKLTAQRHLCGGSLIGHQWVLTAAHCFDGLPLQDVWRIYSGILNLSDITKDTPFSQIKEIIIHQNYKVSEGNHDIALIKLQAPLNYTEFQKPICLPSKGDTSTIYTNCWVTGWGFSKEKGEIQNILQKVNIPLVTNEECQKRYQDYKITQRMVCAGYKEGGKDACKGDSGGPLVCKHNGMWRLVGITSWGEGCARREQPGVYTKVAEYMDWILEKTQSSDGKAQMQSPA
structure (smiles),measurement,setting,value
O=C(/C=C/c1cc(Cl)ccc1-n1cnnn1)N[C@@H](CC(=O)N1CCN(c2ccccc2)CC1)C(=O)Nc1ccc(C(=O)O)cc1,IC50,Coagulation factor XI [1],0.0142 µM
same,IC50,Plasma kallikrein,27.9 µM
same,Ratio IC50,Homo sapiens [2],1960
same,IC50,Coagulation factor X,340 µM
same,inhibition,[3],inactive
same,inhibition,[4],inactive
same,IC50,Prothrombin,460 µM
same,Ratio IC50,Homo sapiens [5],> 5000
same,Ratio IC50,Homo sapiens [6],> 5000
same,Ratio IC50,Homo sapiens [7],> 5000
same,Ratio IC50,Homo sapiens [8],> 5000
same,Ratio IC50,Homo sapiens [9],> 5000
same,Activity,Plasma [10],inactive
same,Activity,Plasma [11],Active
same,Cmax,[12],57 µg/mL
same,AUC(0-t),[13],18300 ng·h/mL
same,clearance,[14],9.22 mL/min/kg
same,AUC(0-inf),[15],18400 ng·h/mL
same,Activity,Mus musculus [16],Active
same,Activity,Mus musculus [17],inactive
same,Activity,[18],Non-Toxic
same,Activity,[19],Non-Toxic
same,Activity,[20],Non-Toxic
same,Activity,[21],Non-Toxic
same,Activity,[22],Non-Toxic
same,Activity,[23],Non-Toxic
same,Activity,[24],Non-Toxic
same,Activity,[25],Non-Toxic
same,inhibition,Coagulation factor XI [26],59.4%
